Assay [1] concerns STAT3 phosphorylation by IL-6 in TF-1 cells. The experiment in a line: JAK cellular assay: STAT3 phosphorylation by IL-6 in TF-1 cells (HTRF). Format: cell-based. To be noted: IL-6 30 ng/ml, pSTAT3 HTRF, read-out: Cell Based Assay (μM) TF-1/IL-6/pSTAT3. On the procedure: TF-1 cells were starved overnight in OptiMEM medium with 0.5% charcoal stripped fetal bovine serum, 0.1 mM nonessential amino acids (NEAA), 1 mM sodium pyruvate and without phenol red in CO2 incubator maintained at 37° c. Next day, cells were resuspended in RPMI without phenol red and dispensed into a 96 well plate at a final cell density of 1,20,000 cells per well. Compounds were diluted in DMSO and added to cells and incubated for 30 minutes in CO2 incubator maintained at 37° c. Final DMSO concentration in cell based assay was 0.2%. Human recombinant cytokines, IL-6 (30 ng/ml) and GMCSF (5 ng/ml) were added to the plate containing cells along with compound and incubated for 20 minutes with gentle tapping at every 5 minutes once. Compound mediated effects on STAT3 and STAT5 phosphorylation was measured in the lysates prepared by using CISBIO pSTAT3 and pSTAT5 detection kits by HTRF method. Background signal obtained from cells which were not activated with cytokines, was subtracted from vehicle controls and compound treated wells.
Background: TR-FRET usually uses a lanthanide donor and a delayed reading to cut background.

The target in assay [2] is T1, Recombinant JAK3 (Homo sapiens, UniProt P52333).
T1 construct: purchased Carna Biosciences
T1 sequence (P52333 1-1124): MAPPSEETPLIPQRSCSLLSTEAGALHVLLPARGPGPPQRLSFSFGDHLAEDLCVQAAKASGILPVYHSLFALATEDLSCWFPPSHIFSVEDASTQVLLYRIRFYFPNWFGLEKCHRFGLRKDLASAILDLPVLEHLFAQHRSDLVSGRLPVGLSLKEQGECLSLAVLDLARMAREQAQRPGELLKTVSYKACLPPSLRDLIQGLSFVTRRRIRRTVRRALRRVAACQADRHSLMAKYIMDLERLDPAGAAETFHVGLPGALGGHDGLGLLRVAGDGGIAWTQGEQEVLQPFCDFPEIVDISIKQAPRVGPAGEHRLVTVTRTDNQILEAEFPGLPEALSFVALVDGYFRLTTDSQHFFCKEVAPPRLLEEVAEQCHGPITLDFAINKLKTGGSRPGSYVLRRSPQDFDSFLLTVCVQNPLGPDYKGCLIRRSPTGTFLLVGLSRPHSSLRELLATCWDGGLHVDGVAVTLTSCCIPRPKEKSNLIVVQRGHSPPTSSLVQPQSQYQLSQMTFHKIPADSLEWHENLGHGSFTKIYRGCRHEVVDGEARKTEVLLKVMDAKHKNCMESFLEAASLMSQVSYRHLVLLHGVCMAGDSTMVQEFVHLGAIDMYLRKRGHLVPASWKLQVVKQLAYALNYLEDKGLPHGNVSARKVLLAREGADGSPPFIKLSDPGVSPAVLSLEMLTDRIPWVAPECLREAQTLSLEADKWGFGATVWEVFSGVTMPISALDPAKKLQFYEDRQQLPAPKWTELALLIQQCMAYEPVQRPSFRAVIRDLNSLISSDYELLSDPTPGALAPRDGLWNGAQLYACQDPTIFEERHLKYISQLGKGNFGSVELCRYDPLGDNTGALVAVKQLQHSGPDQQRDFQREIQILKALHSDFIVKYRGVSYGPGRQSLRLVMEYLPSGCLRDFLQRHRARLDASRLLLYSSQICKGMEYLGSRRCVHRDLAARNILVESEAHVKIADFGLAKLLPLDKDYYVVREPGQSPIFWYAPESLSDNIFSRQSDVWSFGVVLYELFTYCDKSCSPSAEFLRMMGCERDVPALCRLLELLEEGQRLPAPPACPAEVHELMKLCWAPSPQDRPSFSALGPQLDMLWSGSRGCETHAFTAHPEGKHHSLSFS
As to the kind of experiment: JAK biochemical assay (LANCE Ultra TR-FRET), JAK3. To be noted: recombinant JAK3, TR-FRET; read-out: Biochemical Assay (μM) JAK3. The procedure, abridged:
(§1)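 TR-FRET read-out of ULight substrate phosphorylation by recombinant kinase gives % inhibition relative to vehicle. The assay buffer is HEPES pH 7.5 with EGTA, MgCl2, DTT and Tween-20.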

The target of assay [3] is T2, Recombinant TYK2 (Homo sapiens, UniProt P29597).
T2 construct: purchased Carna Biosciences
T2 sequence (P29597 whole entry): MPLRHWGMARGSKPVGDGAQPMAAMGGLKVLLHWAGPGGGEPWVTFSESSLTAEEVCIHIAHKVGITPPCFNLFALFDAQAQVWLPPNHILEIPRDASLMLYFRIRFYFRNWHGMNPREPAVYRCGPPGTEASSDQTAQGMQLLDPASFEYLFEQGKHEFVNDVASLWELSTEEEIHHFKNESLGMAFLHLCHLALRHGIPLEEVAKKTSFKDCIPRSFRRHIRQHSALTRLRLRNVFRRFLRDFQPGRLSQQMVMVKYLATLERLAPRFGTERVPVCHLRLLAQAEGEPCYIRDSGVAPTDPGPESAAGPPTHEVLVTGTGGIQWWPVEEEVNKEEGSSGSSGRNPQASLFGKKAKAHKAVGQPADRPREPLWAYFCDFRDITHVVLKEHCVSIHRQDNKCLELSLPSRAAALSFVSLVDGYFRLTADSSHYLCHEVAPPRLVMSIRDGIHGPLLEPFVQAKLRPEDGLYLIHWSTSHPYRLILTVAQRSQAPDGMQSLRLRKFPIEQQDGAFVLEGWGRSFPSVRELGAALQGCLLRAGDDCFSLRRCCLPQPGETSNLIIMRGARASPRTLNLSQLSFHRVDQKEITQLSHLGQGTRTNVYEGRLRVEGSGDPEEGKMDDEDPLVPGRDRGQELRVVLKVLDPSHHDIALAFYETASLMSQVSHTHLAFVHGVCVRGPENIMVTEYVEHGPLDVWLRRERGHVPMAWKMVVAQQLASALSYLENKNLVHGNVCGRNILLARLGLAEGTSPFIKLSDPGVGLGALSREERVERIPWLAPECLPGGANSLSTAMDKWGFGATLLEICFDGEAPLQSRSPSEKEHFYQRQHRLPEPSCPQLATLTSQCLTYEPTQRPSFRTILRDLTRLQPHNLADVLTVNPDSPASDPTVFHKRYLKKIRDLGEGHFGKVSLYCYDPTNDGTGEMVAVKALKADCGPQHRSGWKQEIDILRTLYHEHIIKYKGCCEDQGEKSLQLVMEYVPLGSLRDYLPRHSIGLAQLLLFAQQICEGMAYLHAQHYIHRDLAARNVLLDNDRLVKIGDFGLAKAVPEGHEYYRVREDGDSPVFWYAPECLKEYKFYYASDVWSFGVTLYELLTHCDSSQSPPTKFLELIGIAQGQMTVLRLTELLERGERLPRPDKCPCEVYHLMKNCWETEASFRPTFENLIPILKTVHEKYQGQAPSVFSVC
As to the kind of experiment: JAK biochemical assay (LANCE Ultra TR-FRET), TYK2. The note with it: recombinant TYK2, TR-FRET; read-out: Biochemical Assay (μM) TYK2. Summed up:
as §1

Assay [4] concerns the target T3, Recombinant JAK2 (Homo sapiens, UniProt O60674).
T3 construct: purchased Carna Biosciences
As to the kind of experiment: JAK biochemical assay (LANCE Ultra TR-FRET), JAK2. To be noted: recombinant JAK2, TR-FRET; read-out: Biochemical Assay (μM) JAK2. The procedure, abridged: as §1

The target of assay [5] is T4, Recombinant JAK1 (Homo sapiens, UniProt P23458).
T4 construct: purchased Carna Biosciences
T4 sequence (P23458 whole entry): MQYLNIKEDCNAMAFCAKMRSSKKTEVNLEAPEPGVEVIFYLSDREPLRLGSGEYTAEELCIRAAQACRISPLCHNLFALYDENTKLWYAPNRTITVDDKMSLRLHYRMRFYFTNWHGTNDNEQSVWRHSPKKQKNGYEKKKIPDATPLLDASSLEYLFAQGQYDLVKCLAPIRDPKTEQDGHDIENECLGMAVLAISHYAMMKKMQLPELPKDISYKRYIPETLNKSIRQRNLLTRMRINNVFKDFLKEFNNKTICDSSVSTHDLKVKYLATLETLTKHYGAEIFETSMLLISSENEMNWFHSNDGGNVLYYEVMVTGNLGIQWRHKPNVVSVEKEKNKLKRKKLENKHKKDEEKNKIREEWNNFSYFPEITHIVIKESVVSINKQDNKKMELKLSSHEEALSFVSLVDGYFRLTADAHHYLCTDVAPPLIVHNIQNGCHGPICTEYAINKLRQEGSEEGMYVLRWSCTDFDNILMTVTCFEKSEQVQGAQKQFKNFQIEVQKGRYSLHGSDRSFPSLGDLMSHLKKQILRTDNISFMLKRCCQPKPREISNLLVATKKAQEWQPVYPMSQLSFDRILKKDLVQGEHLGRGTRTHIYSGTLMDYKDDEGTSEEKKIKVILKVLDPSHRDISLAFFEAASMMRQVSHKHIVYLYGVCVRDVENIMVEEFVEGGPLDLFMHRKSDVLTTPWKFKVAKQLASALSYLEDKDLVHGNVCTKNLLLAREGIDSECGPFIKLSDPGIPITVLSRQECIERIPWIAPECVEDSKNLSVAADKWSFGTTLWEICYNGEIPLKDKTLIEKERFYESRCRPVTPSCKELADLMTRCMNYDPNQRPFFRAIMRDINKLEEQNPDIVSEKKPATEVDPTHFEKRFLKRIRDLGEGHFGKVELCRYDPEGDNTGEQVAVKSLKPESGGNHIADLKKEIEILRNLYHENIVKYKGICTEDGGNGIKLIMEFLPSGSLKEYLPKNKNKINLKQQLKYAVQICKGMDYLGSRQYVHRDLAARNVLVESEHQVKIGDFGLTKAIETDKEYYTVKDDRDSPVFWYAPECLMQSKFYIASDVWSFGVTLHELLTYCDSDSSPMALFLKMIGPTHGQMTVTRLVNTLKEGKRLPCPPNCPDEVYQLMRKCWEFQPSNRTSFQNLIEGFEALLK
The experiment in a line: JAK biochemical assay (LANCE Ultra TR-FRET), JAK1. The note with it: recombinant JAK1, TR-FRET; read-out: Biochemical Assay (μM) JAK1. Summed up:
as §1

Where a name gives a salt, the structure may show the parent alone. Read-outs that look alike come from different tables or passages of the source.

T3 sequence (O60674 whole entry): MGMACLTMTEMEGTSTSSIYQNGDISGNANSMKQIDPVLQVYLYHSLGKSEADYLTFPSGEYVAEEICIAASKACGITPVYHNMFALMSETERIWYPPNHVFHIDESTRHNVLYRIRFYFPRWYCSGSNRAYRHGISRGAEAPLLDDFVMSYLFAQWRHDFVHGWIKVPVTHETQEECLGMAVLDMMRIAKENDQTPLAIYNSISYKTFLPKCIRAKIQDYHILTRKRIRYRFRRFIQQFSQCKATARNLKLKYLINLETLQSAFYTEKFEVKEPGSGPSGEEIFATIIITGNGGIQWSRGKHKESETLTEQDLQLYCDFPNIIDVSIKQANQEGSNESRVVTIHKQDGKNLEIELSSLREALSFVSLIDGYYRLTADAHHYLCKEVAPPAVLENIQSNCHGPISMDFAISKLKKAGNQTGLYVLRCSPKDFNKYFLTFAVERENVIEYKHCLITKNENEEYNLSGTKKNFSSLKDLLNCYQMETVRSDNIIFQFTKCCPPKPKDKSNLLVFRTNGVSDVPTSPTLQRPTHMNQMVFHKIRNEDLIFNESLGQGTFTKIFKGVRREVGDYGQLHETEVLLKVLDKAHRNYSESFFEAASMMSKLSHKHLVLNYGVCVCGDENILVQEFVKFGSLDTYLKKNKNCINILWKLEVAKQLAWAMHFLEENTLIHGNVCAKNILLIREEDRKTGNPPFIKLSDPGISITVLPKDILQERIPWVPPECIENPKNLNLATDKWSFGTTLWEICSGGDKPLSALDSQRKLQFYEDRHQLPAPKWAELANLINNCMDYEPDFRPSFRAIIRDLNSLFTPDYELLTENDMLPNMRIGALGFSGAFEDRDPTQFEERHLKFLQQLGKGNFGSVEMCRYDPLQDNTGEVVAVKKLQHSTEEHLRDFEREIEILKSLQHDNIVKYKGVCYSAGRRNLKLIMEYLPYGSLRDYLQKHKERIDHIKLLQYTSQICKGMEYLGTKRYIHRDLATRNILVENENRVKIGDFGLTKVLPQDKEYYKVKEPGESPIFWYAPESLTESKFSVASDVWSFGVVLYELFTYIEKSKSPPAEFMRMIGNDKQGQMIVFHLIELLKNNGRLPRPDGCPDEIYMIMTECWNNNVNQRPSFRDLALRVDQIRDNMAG

As to `N#CC1CCCCC1NC(=O)n1cc(-c2ccnc3[nH]cnc23)cn1` (centres unmarked) [Example 1066, N-(2-cyanocyclohexyl)-4-(3H-imidazo[4,5-b]pyridin-7-yl)-1H-pyrazole-1-carboxamide], the IC50 was more than 10 µM in assay [1] (Homo sapiens, TF-1, TF-1 cells); more than 0.5 µM in assay [2]; more than 0.5 µM in assay [3]; more than 0.5 µM in assay [4].

For `O=C(NCC(F)(F)F)N1CCN(c2ccnc3[nH]c(-c4ccccc4)nc23)CC1` [Example 1022, N-(2,2,2-trifluoroethyl)-4-(2-phenyl-3H-imidazo[4,5-b]pyridin-7-yl)piperazine-1-carboxamide], the IC50 was more than 10 µM in assay [1] (Homo sapiens, TF-1, TF-1 cells); less than 0.5 µM in assay [2]; less than 0.5 µM in assay [3]; less than 0.5 µM in assay [4]; less than 0.5 µM in assay [5].

With `O=C(NCC(F)(F)F)Nc1ccc(-c2ccnc3[nH]c(=O)[nH]c23)cc1` [Example 1003, 1-(2,2,2-trifluoroethyl)-3-(4-(2,3-dihydro-2-oxo-1H-imidazo[4,5-b]pyridin-7-yl)phenyl)urea], the IC50 in assay [1] (Homo sapiens, TF-1, TF-1 cells) is more than 10 µM; in assay [2] it was 0.175 µM; in assay [3] it was 0.182 µM; in assay [4], 0.036 µM; in assay [5], 0.021 µM.

As to `N#CC1(NC(=O)n2cc(-c3ccnc4[nH]c(=O)[nH]c34)cn2)CC1` [Example 1032, N-(1-cyanocyclopropyl)-4-(2,3-dihydro-2-oxo-1H-imidazo[4,5-b]pyridin-7-yl)-1H-pyrazole-1-carboxamide], the IC50 was more than 10 µM in assay [1] (Homo sapiens, TF-1, TF-1 cells); less than 0.5 µM in assay [2]; less than 0.5 µM in assay [3]; less than 0.5 µM in assay [4]; less than 0.5 µM in assay [5].

Regarding `CC(C)NCC[C@H](c1ccc(-n2cc(-c3ccnc4[nH]cnc34)cn2)nc1)C(F)(F)F` [Example 1208, (R)-3-(6-(4-(3H-imidazo[4,5-b]pyridin-7-yl)-1H-pyrazol-1-yl)pyridin-3-yl)-4,4,4-trifluoro-N-isopropylbutan-1-amine], the IC50 in assay [1] (Homo sapiens, TF-1, TF-1 cells) was more than 1 µM; in assay [2], 0.005 µM; in assay [3], more than 0.5 µM; in assay [4] it was 0.01 µM.

With `N#CCC(NC(=O)n1cc(-c2ccnc3[nH]c(=O)[nH]c23)cn1)C1CCCC1` (centres unmarked) [Example 1039, N-(2-cyano-1-cyclopentylethyl)-4-(2,3-dihydro-2-oxo-1H-imidazo[4,5-b]pyridin-7-yl)-1H-pyrazole-1-carboxamide], the IC50 in assay [1] (Homo sapiens, TF-1, TF-1 cells) was 10 µM; in assay [3], less than 0.5 µM; in assay [4], less than 0.5 µM; in assay [5], less than 0.5 µM.

For `N#CCc1ccc(-n2cc(-c3ccnc4[nH]cnc34)cn2)nc1` [Example 1082, 2-(6-(4-(3H-imidazo[4,5-b]pyridin-7-yl)-1H-pyrazol-1-yl)pyridin-3-yl)acetonitrile hydrochloride], the IC50 in assay [1] (TF-1 cells, hydrochloride) was more than 1 µM; in assay [2] it was less than 0.5 µM; in assay [4], less than 0.5 µM; in assay [5], less than 0.5 µM.

As for `CC(C)NCC(c1ccc(-n2cc(-c3ccnc4[nH]cnc34)cn2)nc1)C(F)(F)F` (centres unmarked) [Example 1218, 2-(6-(4-(3H-imidazo[4,5-b]pyridin-7-yl)-1H-pyrazol-1-yl)pyridin-3-yl)-3,3,3-trifluoro-N-isopropylpropan-1-amine], the IC50 in assay [1] (Homo sapiens, TF-1, TF-1 cells) is more than 0.5 µM.

For the compound `O=C(NCC(F)(F)F)Nc1ccc(-c2ccnc3[nH]c(=O)[nH]c23)cn1` [Example 1005, 1-(2,2,2-trifluoroethyl)-3-(5-(2,3-dihydro-2-oxo-1H-imidazo[4,5-b]pyridin-7-yl)pyridin-2-yl)urea], the IC50 in assay [1] (Homo sapiens, TF-1, TF-1 cells) is more than 10 µM; in assay [3], more than 1 µM.

Regarding `CS(=O)(=O)CCC(F)c1ccc(-n2cc(-c3ccnc4[nH]cnc34)cn2)nc1` (centres unmarked) [Example 1162, 7-(1-(5-(1-fluoro-3-(methylsulfonyl)propyl)pyridin-2-yl)-1H-pyrazol-4-yl)-3H-imidazo[4,5-b]pyridine], the IC50 in assay [2] was more than 0.5 µM; in assay [3], more than 1 µM; in assay [4], more than 0.5 µM; in assay [5], more than 0.5 µM.

(Values after patent US12516056B2, “Compounds for inhibition of janus kinase 1” (MANKIND PHARMA LTD., priority 2019, dated 2026).)
